These results are taken from paper PMC9583322, “Vicinal Diaryl-Substituted Isoxazole and Pyrazole Derivatives with In Vitro Growth Inhibitory and In Vivo Antitumor Activity” (ACS Omega, 2022).

The structures appear in SMILES notation.

Data set [1] is described as follows: Solubility at the physiological pH. It is filed as physicochemical. The method, then: (§1) All chemicals were purchased from different suppliers such as Sigma-Aldrich Chemicals (Sigma-Aldrich Corp., St. Louis, MO), Merck Chemicals (Merck KGaA, Darmstadt, Germany), and ABCR (abcr GmbH, Karlsruhe, Germany). THF was dried from benzophenone-sodium. ^1H and ^13C NMR spectra were recorded in CDCl3 or DMSO-d6 on a Varian Mercury 400 MHz spectrometer using tetramethylsilane as the internal standard. Coupling constants were reported as Hertz and all chemical shifts were recorded as δ (ppm). High-resolution mass spectra data (HRMS) were collected using Waters LCT Premier XE Mass Spectrometer operating in ESI(+) or ESI(−) method, also coupled to an AQUITY Ultra Performance Liquid Chromatography system (Waters Corporation) using a UV detector monitoring at 254 nm. Purity for all final compounds was >95%, according to the UPLC-MS method using a water/MeCN solvent gradient containing 0.1% formic acid (1%/90%); flow rate: 0.3 mL/min, column: Aquity BEH C18 column (2.1 × 100 mm^2, 1.7 mm). All microwave irradiation reactions were carried out in a Biotage Initiator + microwave apparatus with Biotage sealed microwave vials. […] Melting points of the compounds were determined using the SMP50 automated melting point apparatus (Stuart, Staffordshire, ST15 OSA, U.K.). […]

The test system of the next data set is plasma protein. Put plainly: Plasma protein binding. It counts as in vitro ADME. How it is done: as §1
Another data set can be described thus: Mouse PK, IV and PO. It is filed as in vivo. The method, then: 1000 Mean Mice PK plasma concentrations after
Figure S2. Plasma concentrations vs. time profile of 85 after single dose IV (1 mg/kg) and PO
(10 mg/kg) administrations in male CD-1 mice. The PK study was done at Syngene
International, Ltd., India. […]

Another data set in a line: logD7.4. It is filed as physicochemical. Particulars: pH 7.4. How it is done:
as §1

Data set [2] can be described thus: Metabolic stability in human microsomes. It is filed as in vitro ADME. Particulars: after 45 min incubation. The method, then:
as §1

The next data set concerns the target CYP3A4 (Homo sapiens, UniProt P08684). Put plainly: CYP inhibition. It is filed as in vitro ADME. The settings on record: read-out: Inhibition of human CYP 3A4. The method, then: (§2) All chemicals were purchased from different suppliers such as Sigma-Aldrich Chemicals (Sigma-Aldrich Corp., St. Louis, MO), Merck Chemicals (Merck KGaA, Darmstadt, Germany), and ABCR (abcr GmbH, Karlsruhe, Germany). THF was dried from benzophenone-sodium. ^1H and ^13C NMR spectra were recorded in CDCl3 or DMSO-d6 on a Varian Mercury 400 MHz spectrometer using tetramethylsilane as the internal standard. Coupling constants were reported as Hertz and all chemical shifts were recorded as δ (ppm). High-resolution mass spectra data (HRMS) were collected using Waters LCT Premier XE Mass Spectrometer operating in ESI(+) or ESI(−) method, also coupled to an AQUITY Ultra Performance Liquid Chromatography system (Waters Corporation) using a UV detector monitoring at 254 nm. Purity for all final compounds was >95%, according to the UPLC-MS method using a water/MeCN solvent gradient containing 0.1% formic acid (1%/90%); flow rate: 0.3 mL/min, column: Aquity BEH C18 column (2.1 × 100 mm^2, 1.7 mm). All microwave irradiation reactions were carried out in a Biotage Initiator + microwave apparatus with Biotage sealed microwave vials. Flash chromatography was performed on a Combiflash Rf Automatic Flash Chromatography System with RediSep silica gel columns (12, 24, and 40 g) (Teledyne-Isco, Lincoln, NE) or Reveleris PREP Purification System (Buchi, New Castle, DE). Preparative chromatography was performed on Buchi US15C18HQ-250/212-C18 silica gel columns with the following devices; Reveleris PREP Purification System or PuriFlash 4250 System (Interchim, Montluçon, France). Melting points of the compounds were determined using the SMP50 automated melting point apparatus (Stuart, Staffordshire, ST15 OSA, U.K.). The in vitro ADME and in vivo mouse PK studies were conducted at Syngene International Ltd., Bangalore, India. General synthetic procedures (Methods 1–9) and experimental data for all intermediate compounds can be found in the Supporting Information.

In the next data set the target is CYP2C9 (Homo sapiens, UniProt P11712). Put plainly: CYP inhibition. It is filed as in vitro ADME. The settings on record: read-out: Inhibition of human CYP 2C9. The method, then: as §2
A further data set has as its target CYP2D6 (Homo sapiens, UniProt P10635). Put plainly: CYP inhibition. It counts as in vitro ADME. The settings on record: read-out: Inhibition of human CYP 2D6. The method, then: as §2
Where [3] appears, read: male, CD-1, plasma, 1 mg/kg, Mouse IV PK, 1 mpk.
Setting [4] is: male, CD-1, plasma, 10 mg/kg, Mouse PO PK, 10 mpk.

Sequence of CYP2D6 (P10635 whole entry): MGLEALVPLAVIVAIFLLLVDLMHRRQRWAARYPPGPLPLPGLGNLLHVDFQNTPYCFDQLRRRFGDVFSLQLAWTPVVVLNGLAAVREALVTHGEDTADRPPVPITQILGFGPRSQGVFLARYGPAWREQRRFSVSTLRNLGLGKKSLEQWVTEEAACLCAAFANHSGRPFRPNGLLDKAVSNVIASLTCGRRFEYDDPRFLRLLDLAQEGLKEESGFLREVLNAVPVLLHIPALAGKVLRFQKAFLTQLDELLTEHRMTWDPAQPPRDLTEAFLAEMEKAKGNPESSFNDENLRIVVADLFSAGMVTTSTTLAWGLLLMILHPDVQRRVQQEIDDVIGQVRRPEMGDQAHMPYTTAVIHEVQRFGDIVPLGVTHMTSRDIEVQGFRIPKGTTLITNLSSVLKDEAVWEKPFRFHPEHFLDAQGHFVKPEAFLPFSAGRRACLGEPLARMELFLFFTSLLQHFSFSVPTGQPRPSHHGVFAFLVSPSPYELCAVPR
Sequence of CYP3A4 (P08684 whole entry): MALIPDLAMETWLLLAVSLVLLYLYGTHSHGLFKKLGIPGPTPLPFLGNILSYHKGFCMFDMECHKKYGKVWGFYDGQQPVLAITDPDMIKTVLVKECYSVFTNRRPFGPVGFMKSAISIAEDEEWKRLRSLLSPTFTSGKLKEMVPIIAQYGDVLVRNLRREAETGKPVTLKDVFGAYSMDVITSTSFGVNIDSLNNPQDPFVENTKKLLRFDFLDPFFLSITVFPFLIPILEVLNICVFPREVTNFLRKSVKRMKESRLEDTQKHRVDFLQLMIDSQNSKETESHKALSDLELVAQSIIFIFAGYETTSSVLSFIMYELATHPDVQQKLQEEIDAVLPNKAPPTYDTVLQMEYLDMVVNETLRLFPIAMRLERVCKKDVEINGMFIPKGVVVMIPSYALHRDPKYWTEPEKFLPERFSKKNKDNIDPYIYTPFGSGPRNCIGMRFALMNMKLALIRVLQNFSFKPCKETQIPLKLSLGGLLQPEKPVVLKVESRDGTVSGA
Sequence of CYP2C9 (P11712 whole entry): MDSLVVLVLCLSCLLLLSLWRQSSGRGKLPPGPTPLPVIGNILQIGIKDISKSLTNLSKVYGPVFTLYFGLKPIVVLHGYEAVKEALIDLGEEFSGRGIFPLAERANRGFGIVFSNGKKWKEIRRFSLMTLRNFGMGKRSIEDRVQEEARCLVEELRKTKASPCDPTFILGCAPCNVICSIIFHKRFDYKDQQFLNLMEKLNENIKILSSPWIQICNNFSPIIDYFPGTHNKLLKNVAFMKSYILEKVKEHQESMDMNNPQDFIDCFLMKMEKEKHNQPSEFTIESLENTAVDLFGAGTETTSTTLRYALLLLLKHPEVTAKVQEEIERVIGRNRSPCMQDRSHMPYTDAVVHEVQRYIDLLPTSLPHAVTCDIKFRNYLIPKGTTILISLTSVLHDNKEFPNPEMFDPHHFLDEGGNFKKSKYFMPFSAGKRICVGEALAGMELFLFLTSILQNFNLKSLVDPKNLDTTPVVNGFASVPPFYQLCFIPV

For orientation: AUC means concentration integrated over time. As usually defined, the half-life is the time needed for the level to fall by half in the phase considered. By Cmax is commonly meant the highest concentration seen after dosing. As usually defined, the bioavailability is the share of a dose that reaches the circulation, judged against a reference dose that is usually intravenous. What is called logD is lipophilicity at a set pH, counting ionised and neutral species. Low values mean lower lipophilicity, high ones higher lipophilicity. As usually defined, the inhibition is how much of the control response was suppressed. On to `Cc1ccccc1COc1ccc(-c2ccnn2-c2ccc(Cl)cc2)cc1` [compound 85, 1-(4-Chlorophenyl)-5-(4-((2-methylbenzyl)oxy)phenyl)-1H-pyrazole], for which the Solubility entry in data set [1] is on record as “sparingly soluble”. Further, in the data set with plasma protein, the plasma protein-bound was 99.9%. In “Mouse PK, IV and PO” (Mouse IV PK, 1 mpk), this compound showed a Co of 393 ng/mL. Further, in the data set “Mouse PK, IV and PO” (setting [3]), the AUC stood at 436 ng·h/mL, the Vd came to 13.2 L/kg and the half-life was 3.85 h. Besides, the clearance in the data set “Mouse PK, IV and PO” (male, CD-1, plasma, 1 mg/kg, Mouse IV PK, 1 mpk, read-out: Clp (converted)) is 38.8 mL/min/kg. In “Mouse PK, IV and PO” (setting [4]), the AUC is 192 ng·h/mL, the concentration peaked (Cmax) at 19.3 ng/mL, the bioavailability was determined as 5% and the half-life is 6.64 h. Besides, in “logD7.4”, the logD was found to be 6.64. Further, the “Metabolic stability, remaining” value in data set [2] was found to be 55%. Also, the inhibition at 10 µM on CYP3A4 was found to be 0%. Further, the inhibition at 10 µM on CYP2C9 is 7.3%. Moreover, at CYP2D6, the inhibition at 10 µM was determined as 22.2%.
